Results taken from patent publication US20230108442A1, “NOVEL ANTIMALARIAL AGENT CONTAINING HETEROCYCLIC COMPOUND” (Eisai R&D Management Co., Ltd., priority 2020, published 2023).
Values joined by “and” are separate entries in the source; they are usually repeats but may differ in a detail not shown here. Equal values may be shown once.

Columns and labels:
[1] = tested on: Plasmodium falciparum strain 3D7 (chloroquine-sensitive); assay: in vitro drug susceptibility test, parasite lactate dehydrogenase detection, strain 3D7; assay type: cell-based; conditions: 72 hours incubation, pLDH absorbance at 660 nm, read-out: Pf_3D7 IC50
Method: (§1) Plasmodium falciparum strain 3D7 (chloroquine-sensitive) and K1 (chloroquine-resistant) were obtained from Kitasato University and used for testing antimalarial activities in vitro. The cultivation of P. falciparum was conducted according to Trager's method (Trager, W and Jensen and J., Human malaria parasites in continuous culture. Science, 193:673-677, 1976) with some modification. Precisely, parasites were kept in culture flasks with RPMI1640 medium supplemented with 10% human plasma and 2% fresh human erythrocytes and incubated at 37° C. with the gas condition of 5% CO2 and 5% 02. The parasitemia (percentage of infected erythrocytes to total erythrocytes) were kept within 0.25-10%. Culture medium were replaced and fresh erythrocytes were supplied every 2-3 days. Drug susceptibility test was conducted according to Desjardins's method (Desjardins, R. E., Canfield, C. J., Haynes, D. E. and Chulay, J. D., Quantitative assessment of antimalarial activity in vitro by a semiautomated microdilution technique. Antimicrob. Agents Chemother., 16:710-718, 1979) with some modification. The compounds I to IX and known antimalarial agents (chloroquine and artemisinin) were tested at the same time. Precisely, 199 micro L of parasite cultures (2% hematocrit and 0.75-1% parasitemia) and 1 micro L of compound solution serially diluted in DMSO were poured into every well in 96-well titer plates and final drug concentrations were set within 0.001-1 micro g/mL. The plates were kept at 37° C. with the gas condition of 5% CO2 and 5% O2 for 72 hours and then parasite growth was quantified with Makler's method to detect plasmodial lactate dehydrogenase (Makler, M. T., Rise, J. M., Williams, J. A., Bancroft, J. E., Piper, R. C., Gibbins, B. L. and Hinrichs, D. J., Parasite lactate dehydrogenase as an Assay for Plasmodium falciparum drug sensitivity. Am. J. Med. Hyg., 48:739-741, 1993) with some modification. Precisely, culture plate was kept in freezer overnight and then thawed at 37° C. to disrupt the erythrocytes and parasite cells. In the new 96-well titer plates, 100 micro L of enzyme reaction solution (110 mM Li-lactate, 0.5 mM acetylpyridine-adenine dinucleotide, 50 mM Tris (pH 7.5), 10 mM EDTA, 50 mM KCl and 15 g/L PEG6000) and 20 micro L of freeze-thaw culture were mixed in each well and then kept at room temperature for 30 minutes. The detection solution was prepared by mixing equal volume of 2 mg/mL nitro blue tetrazolium and 0.1 mg/mL phenazine ethosulfate and 20 micro L of the solution was added to each well. After the incubation at room temperature in the dark for 90 minutes, absorbance at 660 nm was analysed and IC50s were calculated from dose response curve.

[2] = tested on: Plasmodium falciparum strain K1 (chloroquine-resistant); assay: in vitro drug susceptibility test, parasite lactate dehydrogenase detection, strain K1; assay type: cell-based; conditions: 72 hours incubation, pLDH absorbance at 660 nm, read-out: Pf_K1 IC50
Method: as §1

[3] = tested on: Plasmodium falciparum Pf3D70087/N9; assay: humanized murine malaria model, parasitemia by flow cytometry; assay type: in vivo; conditions: oral, once daily for three days (I, V) or four days (II), start 72 h post infection, read seven days post infection
Method: The following pharmacological tests in the humanized murine malaria model were conducted using the compounds I, II and V at The Art of Discovery S.L. (Bizkaia, Spain). Briefly, mice engrafted with human erythrocytes were intravenously infected with parasitized red blood cells 72 h before drug treatment inception. The effect of treatment on parasitemia was assessed by measuring the percentage of infected erythrocytes in peripheral blood.
Plasmodium falciparum Pf3D70087/N9, the parasite strain used in this experiment, was described in reference (1). Immunodeficient female NSG (NOD-scid IL-2Rγnull) mice were engrafted with human erythrocytes to have a minimum of 40% of human erythrocytes circulating in peripheral blood during the whole experiment. Each mouse was intraperitoneally (i.p.) or intravenously (i.v.) inoculated with 1 mL (i.p.) or 0.7 mL (i.v.) of 50%-75% hematocrit erythrocyte suspension in RPMI1640 medium, 25% (vol/vol) decomplemented human serum, 3.1 mM hypoxanthine. Then humanized NSG mice were infected with peripheral blood from donor mice by intravenous injection of 0.3 mL of 1.17×10^8 parasitized-erythrocytes per ml suspension. Drug treatment was started after 72-h post infection. In the treatment, 10 ml/kg of compound solution were orally administered to each mouse, once daily for three or four days (three days for compounds I and V, four days for compound II, respectively). An analysis of the parasite population in peripheral blood was performed by flow cytometry as shown in reference (2) and the outcome was shown as the parasitemia expressed as the % of parasitized erythrocytes to the total erythrocytes in peripheral blood. Briefly, serial 2 micro L blood samples of peripheral blood from infected mice were stained with TER-119-Phycoerythrine (marker of murine erythrocytes) and SYTO-16 (nucleic acid dye) and then analyzed by flow cytometry. The therapeutic efficacies were expressed as ED90, the daily doses that reduce by 90% parasitemia to untreated control animals after seven days post infection.

SMILES	IC50 [1]	IC50 [2]	ED90, daily dose that reduces parasitemia by 90% to untreated control animals [3] [mg/kg/day]
Cc1nn(C(F)F)cc1-c1cc(C(=O)NCc2ccc(O[C@H](C)C(F)(F)F)cc2)c(N)nc1N [III, (R)-2,6-diamino-5-(1-(difluoromethyl)-3-methyl-1H-pyrazol-4-yl)-N-(4-((1,1,1-trifluoropropan-2-yl)oxy)benzyl)nicotinamide]	0.078 µg/mL and 162 nM	0.121 µg/mL and 249 nM	–
Nc1nc(N)c(-n2cnc(C(F)(F)F)n2)cc1C(=O)NCc1ccc(OCC(F)(F)F)cc1 [IV, 2,6-diamino-N-(4-(2,2,2-trifluoroethoxy)benzyl)-5-(3-(trifluoromethyl)-1H-1,2,4-triazol-1-yl)nicotinamide]	125 nM	0.031 µg/mL and 171 nM	–
C[C@@H](Oc1ccc(CNC(=O)c2cc(-n3cnc(C(F)F)n3)c(N)nc2N)cc1)C(F)(F)F [V, (R)-2,6-diamino-5-(3-(difluoromethyl)-1H-1,2,4-triazol-1-yl)-N-(4-((1,1,1-trifluoropropan-2-yl)oxy)benzyl)nicotinamide]	0.047 µg/mL and 99 nM	0.075 µg/mL and 160 nM	6.2
C[C@@H](Oc1ccc(CNC(=O)c2cc(-n3cnc(C(F)(F)F)n3)c(N)nc2N)cc1)C(F)(F)F [compound I, (R)-2,6-diamino-5-(3-(trifluoromethyl)-1H-1,2,4-triazol-1-yl)-N-(4-((1,1,1-trifluoropropan-2-yl)oxy)benzyl)nicotinamide]	0.026 µg/mL	0.043 µg/mL and 30 nM	3.2
C[C@@H](Oc1ccc(CNC(=O)c2cc(-c3cnn(C(F)F)c3)c(N)nc2N)cc1)C(F)(F)F [compound II, (R)-2,6-diamino-5-(1-(difluoromethyl)-1H-pyrazol-4-yl)-N-(4-((1,1,1-trifluoropropan-2-yl)oxy)benzyl)nicotinamide]	0.02 µg/mL and 42 nM	0.025 µg/mL and 53 nM	5.0

Now from value to molecule, other results behind:

IC50 [1]	IC50 [2]	SMILES	ED90, daily dose that reduces parasitemia by 90% to untreated control animals [3] [mg/kg/day]
0.05 µg/mL and 113 nM	0.083 µg/mL and 160 nM	Nc1nc(N)c(-c2cnn(C(F)F)c2)cc1C(=O)NCc1ccc(OCC(F)(F)F)cc1F [IX, 2,6-diamino-5-(1-(difluoromethyl)-1H-pyrazol-4-yl)-N-(2-fluoro-4-(2,2,2-trifluoroethoxy)benzyl)nicotinamide]	–
0.024 µg/mL and 48 nM	0.038 µg/mL and 75 nM	C[C@@H](Oc1ccc(CNC(=O)c2cc(-n3cnc(CC(F)(F)F)n3)c(N)nc2N)cc1)C(F)(F)F [VI, (R)-2,6-diamino-5-(3-(2,2,2-trifluoroethyl)-1H-1,2,4-triazol-1-yl)-N-(4-((1,1,1-trifluoropropan-2-yl)oxy)benzyl)nicotinamide]	–
0.016 µg/mL and 30 nM	0.021 µg/mL and 41 nM	Nc1nc(N)c(-n2cnc(C3(C(F)(F)F)CC3)n2)cc1C(=O)NCc1ccc(OCC(F)(F)F)cc1 [VII, 2,6-diamino-N-(4-(2,2,2-trifluoroethoxy)benzyl)-5-(3-(1-(trifluoromethyl)cyclopropyl)-1H-1,2,4-triazol-1-yl)nicotinamide]	–
0.02 µg/mL and 54 nM	0.031 µg/mL and 64 nM	C[C@@H](Oc1ccc(CNC(=O)c2cc(-n3cnc(C4(F)CC4)n3)c(N)nc2N)cc1)C(F)(F)F [VIII, (R)-2,6-diamino-5-(3-(1-fluorocyclopropyl)-1H-1,2,4-triazol-1-yl)-N-(4-((1,1,1-trifluoropropan-2-yl)oxy)benzyl)nicotinamide]	–
